Assay results published in the OligoGym collection.
After the bases stand the sugars from the 5' end (letter, count) and the backbone: PS all phosphorothioate, else s phosphorothioate and o phosphodiester by linkage. Methylation of C is not given here. k = constrained ethyl (cEt); d = 2'-deoxy (DNA)

What follows are sequences tested against IRF4. Conditions: ASO, SK-MEL-28, 4 µM.

Sequence | target mRNA inhibition
GGAGATATTAATTACT (sugars k3 d10 k3, PS) | 50%
GGAGATCCTTTTTATT (sugars k3 d10 k3, PS) | 32%
GGAGGAGGGTTGGCCT (sugars k3 d10 k3, PS) | 1%
GGAGTAATAGTAAATA (sugars k3 d10 k3, PS) | 36%
GGATGGAACAGTAACT (sugars k3 d10 k3, PS) | 52%
GGATTCTATAAATAGA (sugars k3 d10 k3, PS) | 25%
GGCAAATTAATGCTTC (sugars k3 d10 k3, PS) | 76%
GGCAACCTGCATTTGC (sugars k4 d8 k4, PS) | -12%
GGCAAGATGAGAATTC (sugars k3 d10 k3, PS) | 25%
GGCAAGTTTTCTCTGT (sugars k3 d10 k3, PS) | 36%
GGCACGGCTTCAGTCA (sugars k3 d10 k3, PS) | 75%
GGCCAACGACTCCACA (sugars k3 d10 k3, PS) | 23%
GGCCAATGATTTTGTT (sugars k3 d10 k3, PS) | 6%
GGCCATCCAGAGGACC (sugars k3 d10 k3, PS) | 25%
GGCCCCAGCCAAGAAG (sugars k3 d10 k3, PS) | 8%
GGCCGATCATCAACTT (sugars k3 d10 k3, PS) | 7%
GGCCTTCCTGGCGGAG (sugars k3 d10 k3, PS) | 22%
GGCGACCCCGTCGCAG (sugars k3 d10 k3, PS) | 30%
GGCGACTAACTCTCCT (sugars k3 d10 k3, PS) | 63%
GGCTAGGCCACCGCAC (sugars k3 d10 k3, PS) | 28%

Sequence | target mRNA inhibition
GGCTGAGATAGGAAGC (sugars k3 d10 k3, PS) | 36%
GGGAACAGATAGTTAA (sugars k3 d10 k3, PS) | 26%
GGGAAGTGGACCCCAT (sugars k3 d10 k3, PS) | 9%
GGGACCCACGGACGGA (sugars k3 d10 k3, PS) | 9%
GGGAGATCCGGCAGCC (sugars k3 d10 k3, PS) | -10%
GGGCAACAGTTCAAGT (sugars k3 d10 k3, PS) | 36%
GGGCAAGATGAGAATT (sugars k3 d10 k3, PS) | 0%
GGGCAATGGAGTCTCG (sugars k3 d10 k3, PS) | 24%
GGGCAGTCAATTGGAC (sugars k3 d10 k3, PS) | 25%
GGGCATCCTCAGTTAC (sugars k3 d10 k3, PS) | 33%
GGGCATGTAAAACATA (sugars k3 d10 k3, PS) | 23%
GGGCCCGTCCCAGTAG (sugars k3 d10 k3, PS) | 20%
GGGCGACGACAGCTGC (sugars k3 d10 k3, PS) | 32%
GGGTAAAGGAGTGCAG (sugars k3 d10 k3, PS) | 19%
GGGTCCTACCTGCTGG (sugars k3 d10 k3, PS) | 36%
GGGTTAAAGATGTTAC (sugars k3 d10 k3, PS) | 50%
GGGTTACGCTTATTTT (sugars k3 d10 k3, PS) | 65%
GGTAATTTAGGCCAAT (sugars k3 d10 k3, PS) | 35%
GGTACATGGCAGTGGA (sugars k3 d10 k3, PS) | 87%
GGTATACTTAAGCAAG (sugars k3 d10 k3, PS) | 68%

Sequence | target mRNA inhibition
GGTGAGCACCGCGCCG (sugars k3 d10 k3, PS) | -8%
GGTGTAACTTTTACCT (sugars k3 d10 k3, PS) | 11%
GGTTAAATATTCTTCA (sugars k3 d10 k3, PS) | 48%
GGTTACTAATTCCATA (sugars k3 d10 k3, PS) | 56%
GTAAACACATCACTTG (sugars k3 d10 k3, PS) | 51%
GTAAACTTGGCTGTGG (sugars k3 d10 k3, PS) | 18%
GTAAATATCCTGTAGT (sugars k3 d10 k3, PS) | 33%
GTAACTAACTCAAAAG (sugars k3 d10 k3, PS) | -1%
GTAATGTAGGGATACA (sugars k3 d10 k3, PS) | 48%
GTACACAAGACAAATC (sugars k3 d10 k3, PS) | 21%
GTACACCTCTTCACTA (sugars k3 d10 k3, PS) | 7%
GTACATCCTGAAGCCA (sugars k3 d10 k3, PS) | 26%
GTAGATCCTGCTCTGG (sugars k3 d10 k3, PS) | 45%
GTAGTCCTGCTTGCCC (sugars k3 d10 k3, PS) | 44%
GTAGTCCTGCTTGCCC (sugars k4 d8 k4, PS) | 11%
GTATACCAACGACAGC (sugars k3 d10 k3, PS) | 78%
GTATACTTAAGCAAGT (sugars k3 d10 k3, PS) | 42%
GTATAGTTCTCAACCA (sugars k3 d10 k3, PS) | 47%
